From PubChem BioAssay AID288 (DTP/NCI, 2004)
Several values for one entry are separate records, joined by “and”; a condition that tells them apart may be missing. Equal values may be shown once. Inconclusive results are not listed. Numbered stars: 1 amine (or outer) side, 2 acyl side, 3 side chain; on linkers, the order of the positions; unused ones are H or OH. Bridge positions count the residues as written; N and C are the ends. Square brackets hold non-standard residues; d marks the D form. Peptide text beside a SMILES is read from it. I, II: the chains in the order shown. Actinocin(1to9) = Cc1c2oc3c(C)ccc(C(=O)[*:2])c3nc-2c(C(=O)[*:1])c(N)c1=O; NMeV = CN[CH](C(=O)O)C(C)C; Aze = O=C(O)[CH]1CCN1; Sar = CNCC(=O)O

System: BDF1 mice, M5076 sarcoma s.c., survival/tumor T/C
Experiment: NCI In Vivo Anticancer Drug Screen. Data for tumor model Sarcoma M5076 (subcutaneous) in B6D2F1 (BDF1) mice
Description: The antitumor activity of compounds was measured in mice bearing transplantable tumors. Survival or tumor size were measured and the results are expressed as the measurement made in the treated group (T) divided by the measurement made in the vehicle treated control group (C). The tumor model used in this assay is Sarcoma M5076 (subcutaneous) in B6D2F1 (BDF1) mice

[1] = endpoint: median survival time, dose: 50.0 mg/kg/injection, schedule: Q01DX001 (ip), vehicle: saline with Tween-80, higher = longer survival
[2] = endpoint: median survival time, dose: 50.0 mg/kg/injection, schedule: Q01DX009 (ip), vehicle: saline with Tween-80, higher = longer survival
[3] = endpoint: median survival time, dose: 100.0 mg/kg/injection, schedule: Q01DX009 (ip), vehicle: saline with Tween-80, higher = longer survival
[4] = endpoint: median survival time, dose: 200.0 mg/kg/injection, schedule: Q01DX009 (ip), vehicle: saline with Tween-80, higher = longer survival
[5] = endpoint: median tumor weight (est.), dose: 50.0 mg/kg/injection, schedule: Q01DX009 (ip), vehicle: saline with Tween-80, higher = larger tumour
[6] = endpoint: median tumor weight (est.), dose: 100.0 mg/kg/injection, schedule: Q01DX009 (ip), vehicle: saline with Tween-80, higher = larger tumour

## C[C@@H](CN1CC(=O)NC(=O)C1)N1CC(=O)NC(=O)C1
endpoint: median survival time, dose: 32.0 mg/kg/injection, schedule: Q01DX009 (ip), vehicle: saline with Tween-80, higher = longer survival
  T/C: 119 % of control
endpoint: median survival time, dose: 64.0 mg/kg/injection, schedule: Q01DX009 (ip), vehicle: saline with Tween-80, higher = longer survival
  T/C: 108 % of control and 111 % of control
endpoint: median survival time, dose: 128.0 mg/kg/injection, schedule: Q01DX009 (ip), vehicle: saline with Tween-80, higher = longer survival
  T/C: 115 % of control and 119 % of control
endpoint: median tumor weight (est.), dose: 32.0 mg/kg/injection, schedule: Q01DX009 (ip), vehicle: saline with Tween-80, higher = larger tumour
  T/C: 68 % of control
endpoint: median tumor weight (est.), dose: 64.0 mg/kg/injection, schedule: Q01DX009 (ip), vehicle: saline with Tween-80, higher = larger tumour
  T/C: 36 % of control and 58 % of control
endpoint: median tumor weight (est.), dose: 128.0 mg/kg/injection, schedule: Q01DX009 (ip), vehicle: saline with Tween-80, higher = larger tumour
  T/C: 18 % of control and 37 % of control
endpoint: median tumor weight (est.), dose: 256.0 mg/kg/injection, schedule: Q01DX009 (ip), vehicle: saline with Tween-80, higher = larger tumour
  T/C: 14 % of control

## CC(C)CC(NC(=O)C(N)C(C)C)C(=O)NC(CCCCN)C(=O)NC(C(=O)O)C1CC(Cl)=NO1 (configuration not stated)
endpoint: median survival time, dose: 1.6 mg/kg/injection, schedule: Q01DX010 (ip), vehicle: saline, higher = longer survival
  T/C: 103 % of control and 106 % of control
endpoint: median survival time, dose: 25.6 mg/kg/injection, schedule: Q01DX010 (ip), vehicle: saline, higher = longer survival
  T/C: 173 % of control
endpoint: median survival time, dose: 51.2 mg/kg/injection, schedule: Q01DX010 (ip), vehicle: saline, higher = longer survival
  T/C: 166 % of control

## CO[C@@]12[C@H](COC(N)=O)C3=C(C(=O)C(C)=C(N)C3=O)N1C[C@@H]1N[C@@H]12
endpoint: median survival time, dose: 0.38 mg/kg/injection, schedule: Q04DX006 (ip), vehicle: saline, higher = longer survival
  T/C: 105 % of control
endpoint: median survival time, dose: 0.75 mg/kg/injection, schedule: Q02DX033 (ip), vehicle: saline, higher = longer survival
  T/C: 154 % of control
endpoint: median survival time, dose: 0.75 mg/kg/injection, schedule: Q04DX006 (ip), vehicle: saline, higher = longer survival
  T/C: 103 % of control
endpoint: median survival time, dose: 1.5 mg/kg/injection, schedule: Q02DX033 (ip), vehicle: saline, higher = longer survival
  T/C: 92 % of control
endpoint: median survival time, dose: 3.0 mg/kg/injection, schedule: Q04DX006 (ip), vehicle: saline, higher = longer survival
  T/C: 101 % of control

## CC1CCC(NC(=O)N(CCCl)N=O)CC1 (configuration not stated)
endpoint: median survival time, dose: 2.5 mg/kg/injection, schedule: Q04DX009 (ip), vehicle: saline with Tween-80, higher = longer survival
  T/C: 109 % of control
endpoint: median survival time, dose: 5.0 mg/kg/injection, schedule: Q02DX011 (ip), vehicle: Klucel (hydroxypropylcellulose) (HPC), higher = longer survival
  T/C: 296 % of control
endpoint: median survival time, dose: 5.0 mg/kg/injection, schedule: Q02DX033 (ip), vehicle: saline with Tween-80, higher = longer survival
  T/C: 230 % of control
endpoint: median survival time, dose: 5.0 mg/kg/injection, schedule: Q04DX005 (ip), vehicle: other, higher = longer survival
  T/C: 191 % of control
endpoint: median survival time, dose: 5.0 mg/kg/injection, schedule: Q04DX009 (ip), vehicle: saline with Tween-80, higher = longer survival
  T/C: 150 % of control
endpoint: median survival time, dose: 10.0 mg/kg/injection, schedule: Q02DX033 (ip), vehicle: saline with Tween-80, higher = longer survival
  T/C: 252 % of control
endpoint: median survival time, dose: 10.0 mg/kg/injection, schedule: Q04DX005 (ip), vehicle: other, higher = longer survival
  T/C: 233 % of control
endpoint: median survival time, dose: 10.0 mg/kg/injection, schedule: Q04DX009 (ip), vehicle: saline with Tween-80, higher = longer survival
  T/C: 298 % of control
endpoint: median survival time, dose: 20.0 mg/kg/injection, schedule: Q01DX003 (ip), vehicle: saline with Tween-80, higher = longer survival
  T/C: 160 % of control
endpoint: median survival time, dose: 20.0 mg/kg/injection, schedule: Q04DX009 (ip), vehicle: saline with Tween-80, higher = longer survival
  T/C: 320 % of control
endpoint: median survival time, dose: 30.0 mg/kg/injection, schedule: Q01DX001 (ip), vehicle: saline with Tween-80, higher = longer survival
  T/C: 154 % of control and 171 % of control
endpoint: median survival time, dose: 30.0 mg/kg/injection, schedule: Q01DX001 (oral), vehicle: saline with Tween-80, higher = longer survival
  T/C: 160 % of control and 191 % of control
endpoint: median survival time, dose: 40.0 mg/kg/injection, schedule: Q01DX001 (oral), vehicle: saline with Tween-80, higher = longer survival
  T/C: 179 % of control and 237 % of control (2×)
[1]
  T/C: 153 % of control and 226 % of control (2×)
endpoint: median survival time, dose: 50.0 mg/kg/injection, schedule: Q01DX001 (oral), vehicle: saline with Tween-80, higher = longer survival
  T/C: 194 % of control and 229 % of control (2×)
endpoint: median survival time, dose: 60.0 mg/kg/injection, schedule: Q01DX001 (oral), vehicle: saline with Tween-80, higher = longer survival
  T/C: 229 % of control (2×) and 233 % of control

## CN1C(=O)CN2CCc3ccccc3C2c2cc(Cl)ccc21 (configuration not stated)
[2]
  T/C: 99 % of control
[3]
  T/C: 102 % of control
[4]
  T/C: 105 % of control

## CC(=O)[C@H]1CC[C@H]2[C@@H]3C[C@H](C)C4=CC(=O)CC[C@]4(C)[C@H]3C(=O)C[C@]12C
endpoint: mean tumor weight, dose: 100.0 mg/kg/injection, schedule: Q02DX011 (ip), vehicle: Klucel (hydroxypropylcellulose) (HPC), higher = larger tumour
  T/C: 51 % of control
endpoint: mean tumor weight, dose: 200.0 mg/kg/injection, schedule: Q02DX011 (ip), vehicle: Klucel (hydroxypropylcellulose) (HPC), higher = larger tumour
  T/C: 74 % of control

## Cc1c2oc3c(C)ccc(C(=O)NC4C(=O)NC(C(C)C)C(=O)N5CCCC5C(=O)N(C)CC(=O)N(C)C(C(C)C)C(=O)OC4C)c3nc-2c(C(=O)NC2C(=O)NC(C(C)C)C(=O)N3CCC3C(=O)N(C)CC(=O)N(C)C(C(C)C)C(=O)OC2C)c(N)c1=O (configuration not stated) (I: TV[Aze][Sar][NMeV] / II: TVP[Sar][NMeV]; ester I:1-I:C, II:1-II:C; linker I:N-II:N via Actinocin(1to9); configuration not given here)
endpoint: median tumor weight (est.), dose: 14.0 micrograms/kg/injection, schedule: Q02DX011 (ip), vehicle: saline, higher = larger tumour
  T/C: 112 % of control
endpoint: median tumor weight (est.), dose: 23.3 micrograms/kg/injection, schedule: Q02DX011 (ip), vehicle: saline, higher = larger tumour
  T/C: 99 % of control
endpoint: median tumor weight (est.), dose: 38.9 micrograms/kg/injection, schedule: Q02DX011 (ip), vehicle: saline, higher = larger tumour
  T/C: 87 % of control
endpoint: median tumor weight (est.), dose: 64.8 micrograms/kg/injection, schedule: Q02DX011 (ip), vehicle: saline, higher = larger tumour
  T/C: 120 % of control
endpoint: median tumor weight (est.), dose: 108.0 micrograms/kg/injection, schedule: Q02DX011 (ip), vehicle: saline, higher = larger tumour
  T/C: 64 % of control
endpoint: median tumor weight (est.), dose: 180.0 micrograms/kg/injection, schedule: Q02DX011 (ip), vehicle: saline, higher = larger tumour
  T/C: 96 % of control
endpoint: median tumor weight (est.), dose: 300.0 micrograms/kg/injection, schedule: Q02DX011 (ip), vehicle: saline, higher = larger tumour
  T/C: 59 % of control

## Cn1c2c(c(=O)n(C)c1=O)CS(=O)c1ccccc1N2 (configuration not stated)
[2]
  T/C: 103 % of control
[3]
  T/C: 106 % of control
[4]
  T/C: 109 % of control
[5]
  T/C: 65 % of control
[6]
  T/C: 61 % of control
endpoint: median tumor weight (est.), dose: 200.0 mg/kg/injection, schedule: Q01DX009 (ip), vehicle: saline with Tween-80, higher = larger tumour
  T/C: 83 % of control

## CC[C@]1(O)C[C@H]2CN(CCc3c([nH]c4ccccc34)[C@@](C(=O)OC)(c3cc4c(cc3OC)N(C=O)[C@H]3[C@@](O)(C(=O)OC)[C@H](OC(C)=O)[C@]5(CC)C=CCN6CC[C@]43[C@@H]65)C2)C1
endpoint: median survival time, dose: 0.08 mg/kg/injection, schedule: Q02DX030 (ip), vehicle: saline, higher = longer survival
  T/C: 110 % of control
endpoint: median survival time, dose: 0.08 mg/kg/injection, schedule: Q04DX006 (ip), vehicle: saline, higher = longer survival
  T/C: 112 % of control
endpoint: median survival time, dose: 0.15 mg/kg/injection, schedule: Q04DX006 (ip), vehicle: saline, higher = longer survival
  T/C: 97 % of control
endpoint: median survival time, dose: 0.3 mg/kg/injection, schedule: Q04DX006 (ip), vehicle: saline, higher = longer survival
  T/C: 103 % of control
endpoint: median survival time, dose: 0.6 mg/kg/injection, schedule: Q04DX006 (ip), vehicle: saline, higher = longer survival
  T/C: 109 % of control

## CC1CCC(NC(=O)N(CCF)N=O)CC1 (configuration not stated)
endpoint: median survival time, dose: 30.0 mg/kg/injection, schedule: Q01DX003 (ip), vehicle: saline with Tween-80, higher = longer survival
  T/C: 157 % of control
[1]
  T/C: 152 % of control

## O=C1/C(=C/c2cccc([N+](=O)[O-])c2)SC(=S)N1C1CC1
[2]
  T/C: 94 % of control
[3]
  T/C: 94 % of control
[4]
  T/C: 89 % of control
[5]
  T/C: 100 % of control
[6]
  T/C: 97 % of control

## C[CH2][Ge]1([CH2]C)[CH2]CC2(CCN(CCCN(C)C)C2)C[CH2]1
endpoint: mean tumor weight, dose: 12.5 mg/kg/injection, schedule: Q02DX011 (ip), vehicle: saline, higher = larger tumour
  T/C: 110 % of control
endpoint: mean tumor weight, dose: 25.0 mg/kg/injection, schedule: Q02DX011 (ip), vehicle: saline, higher = larger tumour
  T/C: 79 % of control and 91 % of control
endpoint: mean tumor weight, dose: 50.0 mg/kg/injection, schedule: Q02DX011 (ip), vehicle: saline, higher = larger tumour
  T/C: 107 % of control and 82 % of control
endpoint: median tumor weight (est.), dose: 12.5 mg/kg/injection, schedule: Q02DX011 (ip), vehicle: saline, higher = larger tumour
  T/C: 94 % of control
endpoint: median tumor weight (est.), dose: 25.0 mg/kg/injection, schedule: Q02DX011 (ip), vehicle: saline, higher = larger tumour
  T/C: 74 % of control
endpoint: median tumor weight (est.), dose: 50.0 mg/kg/injection, schedule: Q02DX011 (ip), vehicle: saline, higher = larger tumour
  T/C: 74 % of control
